Tests used:
[1] = biological target: T1, chitin synthase 2 of Saccharomyces cerevisiae ECY38-38A(pAS6) (Saccharomyces cerevisiae, UniProt P14180); experiment: In vitro enzyme assay for chitin synthase 2 of Saccharomyces cerevisiae (enzyme 2); assay type: biochemical; settings: relative to polyoxin D (50% inhibitory activity = value 5)
T1 construct: made in house; host or cells: Saccharomyces cerevisiae ECY38-38A (chs1-23 chs2::LEU2 cal1/csd2) carrying plasmid pAS6, grown in galactose medium; 130,000 x g membrane pellet
Description: Crude enzyme was prepared using the recombinant Saccharomyces cerevisiae ECY38-38A(pAS6) (MATa chs1-23 chs2::LEU2 cal 1/csd 2 ura 3-52 trp 1-1 leu 2-2 pAS6) strain, which can produce the chitin synthase 2 only. The strain was inoculated with the YPG culture medium (1% yeast extract, 2% peptone, 2% galactose) and cultured at 30° C. overnight. Then, it was inoculated with a fresh YPG culture medium and cultured for 15-17 hours until the Absorbance at 550 nm reaches 1.0. The cells were collected and suspended in 50 mM Tris-HCl (pH 7.5) buffer containing 5 mM magnesium acetate. After centrifugation at 8,000×g for 10 minutes, the pellets were suspended in the same Tris-HCl buffer solution. The suspension was divided into aliquots in 50 mL conical test tubes. After adding the glass beads, the cells were disrupted by vigorously vortexing with an interval of 30 seconds. The cell residues were removed by centrifuging at 3,000×g for 5 minutes. The supernatant was ultra-centrifuged at 130,000×g for 1 hour. The resultant pellets were collected and suspended in 50 mM Tris-HCl (pH 7.5) containing 33% glycerol, to a final volume of 1.6 mg/g (wet weight) of yeast used. The suspension was divided into aliquots and kept at −70° C. until it is used.
(§1) The inhibitory activities against the chitin synthase 1 of Candida albicans chs2 Δ chs 3 Δ (abbreviated as ‘enzyme 1’) and the chitin synthase 2 of Saccharomyces cerevisiae ECY38-38A(pAS6)(abbreviated as ‘enzyme 2’) was examined for compound Nos. 1 to 70 compound and polyoxin D, a positive control compound.
(§2) The inhibitory activity against the chitin synthase 1 prepared from Candida albicans and the chitin synthase 2 prepared from Saccharomyces cerevisiae were examined as follows. A reaction mixture containing 32 mM Tris-HCl (pH 7.5), 2 mM cobalt acetate, 1.1 mM UDP-[U-^14C]-N-acetyl-d-glucosamine (GlcNAc) (400,000 cpm/μmol), 2 μL of trypsin (0.75 mg/mL), 20 μL of each crude enzyme and 14 μL of each test sample was kept at 30° C. for 15 minutes to activate the enzyme. Then, 2 μL of trypsin inhibitor (1.5 mg/mL) was added and the mixture was kept in an ice bath for 10 minutes to deactivate trypsin. 2 μL of 0.8 M N-acetyl-d-glucosamine was added to a total volume of 50 μL and reaction was performed at 30° C. for 90 minutes. The reaction was stopped using 1 mL of 10% TCA solution and the reaction solution was filtered with a GF/C filter and dried at room temperature. After adding 3 mL of a scintillation cocktail solution, the amount of isotopes was measured using a liquid scintillation counter. Percentage inhibition against each enzyme was calculated by the following Equation 1.
(§3) The control group was not added with a test sample in the reaction mixture and that of the untreated group contained neither the test sample nor the crude enzyme.
(§4) A 50% inhibitory activity of polyoxin D against the enzyme was given the value 5. A compound having the same inhibitory activity as that of polyoxin D at the same concentration was given the value 5. Compounds having the inhibitory activity at 2-fold, 4-fold, 8-fold and 16-fold higher concentrations than that of polyoxin D were given the values of 4, 3, 2 and 1, respectively. On the other hand, compounds having the inhibitory activity at ½, ¼ and ⅛ lower concentrations than that of polyoxin D were given the values of 6, 7 and 8, respectively.

[2] = biological target: T2, chitin synthase 1 of Candida albicans chs2 Δ chs 3 Δ (Candida albicans, UniProt P23316); experiment: In vitro enzyme assay for chitin synthase 1 of Candida albicans (enzyme 1); assay type: biochemical; settings: relative to polyoxin D (50% inhibitory activity = value 5)
T2 construct: Crude enzyme was prepared using the Candida albicans chs2 Δ chs 3 Δ mutant; endogenous in cells; host or cells: Candida albicans chs2Δ/chs2Δ chs3Δ/chs3Δ mutant; 130,000 x g membrane pellet
Description: Crude enzyme was prepared using the Candida albicans chs2 Δ chs 3 Δ mutant (chs2 Δ::hisG/chs2 Δ::hisG chs3 Δ::hisG/chs3 Δ::hisG) strain, which can only produce the chitin synthase 1. The strain was inoculated with the SDA (Sabouraud dextrose agar) culture medium (4% dextrose, 1% peptone, pH 5.6) and cultured at 30° C. for 15-17 hours until the absorbance at 550nm reaches 0.7. The cells were collected and suspended in a 50 mM Tris-HCl (pH 7.5) buffer solution containing 5 mM magnesium acetate. After centrifugation at 8,000×g for 10 minutes, the pellets were suspended in the same Tris-HCl buffer solution. The suspension was divided into aliquots in 50 mL conical test tubes. After adding glass beads, the cells were disrupted by vigorously vortexing with an interval of 30 seconds. The cell residues were removed by centrifuging at 3,000×g for 5 minutes. The supernatant was ultra-centrifuged at 130,000×g for 1 hour. The resultant pellets were collected and suspended in 50 mM Tris-HCl (pH 7.5) containing 33% glycerol, to a final volume of 1.6 mg/g (wet weight) of yeast used. The suspension was divided into aliquots and kept at −70° C. until it is used.
as §1, §2, §3, §4

T2 sequence (P23316 whole entry, stated change not applied): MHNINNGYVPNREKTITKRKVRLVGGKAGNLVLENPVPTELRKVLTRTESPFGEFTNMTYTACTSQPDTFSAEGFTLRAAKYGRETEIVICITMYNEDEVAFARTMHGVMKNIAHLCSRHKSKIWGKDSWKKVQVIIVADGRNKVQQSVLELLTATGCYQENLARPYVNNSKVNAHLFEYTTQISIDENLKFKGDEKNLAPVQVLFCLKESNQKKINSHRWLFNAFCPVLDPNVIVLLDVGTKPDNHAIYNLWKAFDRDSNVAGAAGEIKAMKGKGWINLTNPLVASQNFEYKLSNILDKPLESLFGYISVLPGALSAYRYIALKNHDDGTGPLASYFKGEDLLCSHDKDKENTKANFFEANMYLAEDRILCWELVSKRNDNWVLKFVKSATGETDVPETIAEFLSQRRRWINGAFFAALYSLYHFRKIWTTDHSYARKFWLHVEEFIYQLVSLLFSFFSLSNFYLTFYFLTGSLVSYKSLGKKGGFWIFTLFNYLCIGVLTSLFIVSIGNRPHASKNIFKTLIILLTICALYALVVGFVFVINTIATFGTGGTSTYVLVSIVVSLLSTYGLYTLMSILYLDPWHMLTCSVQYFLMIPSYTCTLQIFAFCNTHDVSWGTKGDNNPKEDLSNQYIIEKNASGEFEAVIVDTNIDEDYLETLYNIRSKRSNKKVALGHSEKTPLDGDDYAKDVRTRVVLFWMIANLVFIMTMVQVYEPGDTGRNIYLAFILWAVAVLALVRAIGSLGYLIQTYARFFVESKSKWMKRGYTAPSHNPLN
T1 sequence (P14180 whole entry): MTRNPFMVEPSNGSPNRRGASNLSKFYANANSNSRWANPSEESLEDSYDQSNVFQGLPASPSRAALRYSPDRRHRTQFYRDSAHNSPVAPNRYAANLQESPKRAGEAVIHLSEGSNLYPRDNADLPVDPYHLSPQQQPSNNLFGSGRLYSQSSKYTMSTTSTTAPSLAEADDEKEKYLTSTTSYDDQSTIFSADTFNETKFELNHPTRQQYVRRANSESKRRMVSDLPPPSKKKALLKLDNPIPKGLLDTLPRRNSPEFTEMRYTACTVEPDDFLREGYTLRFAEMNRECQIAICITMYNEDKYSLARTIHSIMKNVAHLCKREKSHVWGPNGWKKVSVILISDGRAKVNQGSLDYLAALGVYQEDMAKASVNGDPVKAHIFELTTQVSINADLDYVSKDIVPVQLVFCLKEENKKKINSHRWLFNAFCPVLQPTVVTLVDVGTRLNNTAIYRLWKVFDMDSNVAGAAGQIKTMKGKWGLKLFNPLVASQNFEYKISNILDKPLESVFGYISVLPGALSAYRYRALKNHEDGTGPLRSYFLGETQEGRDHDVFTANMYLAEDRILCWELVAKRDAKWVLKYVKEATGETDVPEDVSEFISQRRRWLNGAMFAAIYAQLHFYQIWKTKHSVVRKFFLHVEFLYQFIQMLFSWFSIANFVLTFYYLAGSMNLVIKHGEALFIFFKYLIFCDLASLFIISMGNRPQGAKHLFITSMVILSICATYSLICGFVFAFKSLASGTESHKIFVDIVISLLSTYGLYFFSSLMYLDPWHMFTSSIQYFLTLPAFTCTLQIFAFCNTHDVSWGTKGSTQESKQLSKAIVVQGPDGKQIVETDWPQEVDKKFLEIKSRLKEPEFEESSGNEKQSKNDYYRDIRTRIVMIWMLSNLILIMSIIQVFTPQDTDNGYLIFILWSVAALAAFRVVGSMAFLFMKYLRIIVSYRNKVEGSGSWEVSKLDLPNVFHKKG

| Substance | Relative activity Enzyme 2 [1] | Relative activity Enzyme 1 [2] |
| --- | --- | --- |
| 13-(3,4,5-Trifluorobenzyl)-9-O-butylberberrubine iodide [Compound No. 27] | 6 (compounds having the inhibitory activity at ½, ¼ and ⅛ lower concentrations than that of polyoxin D were given the values of 6, 7 and 8, respectively) | 3 (Compounds having the inhibitory activity at 2-fold, 4-fold, 8-fold and 16-fold higher concentrations than that of polyoxin D were given the values of 4, 3, 2 and 1, respectively) |
| 13-(3,4,5-Trifluorobenzyl)-9-O-hexylberberrubine chloride [Compound No. 60] | 5 (A compound having the same inhibitory activity as that of polyoxin D at the same concentration was given the value 5) | 2 (Compounds having the inhibitory activity at 2-fold, 4-fold, 8-fold and 16-fold higher concentrations than that of polyoxin D were given the values of 4, 3, 2 and 1, respectively) |
| 13-(3,4,5-Trifluorobenzyl)-9-O-hexylberberrubine iodide [Compound No. 28] | 5 (A compound having the same inhibitory activity as that of polyoxin D at the same concentration was given the value 5) | 2 (Compounds having the inhibitory activity at 2-fold, 4-fold, 8-fold and 16-fold higher concentrations than that of polyoxin D were given the values of 4, 3, 2 and 1, respectively) |
| 13-(3,4,5-Trifluorobenzyl)berberrubine [Compound No. 1] | 3 (Compounds having the inhibitory activity at 2-fold, 4-fold, 8-fold and 16-fold higher concentrations than that of polyoxin D were given the values of 4, 3, 2 and 1, respectively) | 1 (Compounds having the inhibitory activity at 2-fold, 4-fold, 8-fold and 16-fold higher concentrations than that of polyoxin D were given the values of 4, 3, 2 and 1, respectively) |
| 13-(3,4,5-Trimethoxybenzyl)-9-O-butylberberrubine chloride [Compound No. 62] | 5 (A compound having the same inhibitory activity as that of polyoxin D at the same concentration was given the value 5) | 2 (Compounds having the inhibitory activity at 2-fold, 4-fold, 8-fold and 16-fold higher concentrations than that of polyoxin D were given the values of 4, 3, 2 and 1, respectively) |
| 13-(3,4,5-Trimethoxybenzyl)-9-O-hexylberberrubine chloride [Compound No. 63] | 4 (Compounds having the inhibitory activity at 2-fold, 4-fold, 8-fold and 16-fold higher concentrations than that of polyoxin D were given the values of 4, 3, 2 and 1, respectively) | 2 (Compounds having the inhibitory activity at 2-fold, 4-fold, 8-fold and 16-fold higher concentrations than that of polyoxin D were given the values of 4, 3, 2 and 1, respectively) |
| 13-(3,4,5-Trimethoxybenzyl)-9-O-hexylberberrubine iodide [Compound No. 31] | 4 (Compounds having the inhibitory activity at 2-fold, 4-fold, 8-fold and 16-fold higher concentrations than that of polyoxin D were given the values of 4, 3, 2 and 1, respectively) | 2 (Compounds having the inhibitory activity at 2-fold, 4-fold, 8-fold and 16-fold higher concentrations than that of polyoxin D were given the values of 4, 3, 2 and 1, respectively) |
| 13-(3,4,5-Trimethoxybenzyl)berberrubine [Compound No. 2] | 3 (Compounds having the inhibitory activity at 2-fold, 4-fold, 8-fold and 16-fold higher concentrations than that of polyoxin D were given the values of 4, 3, 2 and 1, respectively) | 1 (Compounds having the inhibitory activity at 2-fold, 4-fold, 8-fold and 16-fold higher concentrations than that of polyoxin D were given the values of 4, 3, 2 and 1, respectively) |
| 13-(3,4,5-trifluorobenzyl)-9-O-butylberberrubine chloride [Compound No. 59] | 5 (A compound having the same inhibitory activity as that of polyoxin D at the same concentration was given the value 5) | 3 (Compounds having the inhibitory activity at 2-fold, 4-fold, 8-fold and 16-fold higher concentrations than that of polyoxin D were given the values of 4, 3, 2 and 1, respectively) |
| 13-(3,4,5-trimethoxybenzyl)-9-O-butylberberrubine iodide [Compound No. 30] | 5 (A compound having the same inhibitory activity as that of polyoxin D at the same concentration was given the value 5) | 2 (Compounds having the inhibitory activity at 2-fold, 4-fold, 8-fold and 16-fold higher concentrations than that of polyoxin D were given the values of 4, 3, 2 and 1, respectively) |
| 13-(4-Isopropylbenzyl)berberrubine [Compound No. 6] | 4 (Compounds having the inhibitory activity at 2-fold, 4-fold, 8-fold and 16-fold higher concentrations than that of polyoxin D were given the values of 4, 3, 2 and 1, respectively) | 2 (Compounds having the inhibitory activity at 2-fold, 4-fold, 8-fold and 16-fold higher concentrations than that of polyoxin D were given the values of 4, 3, 2 and 1, respectively) |
| 13-(4-Trifluoromethoxybenzyl)-9-O-butylberberrubine chloride [Compound No. 65] | 6 (compounds having the inhibitory activity at ½, ¼ and ⅛ lower concentrations than that of polyoxin D were given the values of 6, 7 and 8, respectively) | 3 (Compounds having the inhibitory activity at 2-fold, 4-fold, 8-fold and 16-fold higher concentrations than that of polyoxin D were given the values of 4, 3, 2 and 1, respectively) |
| 13-(4-Trifluoromethoxybenzyl)-9-O-butylberberrubine iodide [Compound No. 33] | 6 (compounds having the inhibitory activity at ½, ¼ and ⅛ lower concentrations than that of polyoxin D were given the values of 6, 7 and 8, respectively) | 3 (Compounds having the inhibitory activity at 2-fold, 4-fold, 8-fold and 16-fold higher concentrations than that of polyoxin D were given the values of 4, 3, 2 and 1, respectively) |
| 13-(4-Trifluoromethoxybenzyl)-9-O-hexylberberrubine chloride [Compound No. 66] | 5 (A compound having the same inhibitory activity as that of polyoxin D at the same concentration was given the value 5) | 2 (Compounds having the inhibitory activity at 2-fold, 4-fold, 8-fold and 16-fold higher concentrations than that of polyoxin D were given the values of 4, 3, 2 and 1, respectively) |
| 13-(4-Trifluoromethoxybenzyl)-9-O-hexylberberrubine iodide [Compound No. 34] | 5 (A compound having the same inhibitory activity as that of polyoxin D at the same concentration was given the value 5) | 2 (Compounds having the inhibitory activity at 2-fold, 4-fold, 8-fold and 16-fold higher concentrations than that of polyoxin D were given the values of 4, 3, 2 and 1, respectively) |

Source: US7915276B2, “Berberrubine derivatives having antifungal activities” (priority 2006, dated 2011)
